From ChEMBL document CHEMBL1156512, “Accumulation of glucosylceramide in murine testis, caused by inhibition of beta-glucosidase 2: implications for spermatogenesis” (J Biol Chem, 2007)
Blank lines part the entries; values can stand above or below the compound they belong to. Calls of active or inactive are those of the source. The rule behind the calls is not given here.

Experiments:
Mus musculus [1] = assay: Increase in glucosylceramide level in GBA2 deficient C57BL/6-129S1 mouse germ cells at 150 mg/kg/day administered with chow; format: functional, organism-based
Mus musculus [2] = assay: Increase in glucosylceramide level in C57BL/6 mouse spleen administered with chow; format: functional, organism-based
Mus musculus [3] = assay: Effect on spermatogenesis in FVB/N mouse assessed as morphological changes in spermatozoa at 15 mg/kg/day administered with chow; format: functional, organism-based
Mus musculus [4] = assay: Effect on testicular ceramides level in C57BL/6 mouse at 150 mg/kg/day administered with chow; format: functional, organism-based
Mus musculus [5] = assay: Increase in glucosylceramide level in C57BL/6 mouse testes at 300 mg/kg/day administered with chow; format: functional, organism-based; conditions: Testis
Mus musculus [6] = species: Mus musculus; assay: Increase in neutral glycolipids level in C57BL/6 mouse testes; format: functional, organism-based; conditions: Testis
Mus musculus [7] = assay: Effect on glucosylceramide level in C57BL/6 mouse testes at 15 mg/kg/day administered with chow; format: functional, organism-based; conditions: Testis
Mus musculus [8] = assay: Increase in complex glycosylated sphingolipids in C57BL/6 mouse testes at 5 mg/kg/day administered with chow; format: functional, Testis
Mus musculus [9] = assay: Increase in glucosylceramide level in C57BL/6 mouse brain at 1200 mg/kg/day administered with chow; format: functional, organism-based
Mus musculus [10] = assay: Effect on complex glycosylated sphingolipids level in C57BL/6 mouse testes at 15 to 50 mg/kg/day, po; format: functional, organism-based; conditions: Testis
Mus musculus [11] = assay: Effect on spermatogenesis in NZW mouse assessed as morphological changes in spermatozoa at 150 mg/kg/day administered with chow; format: functional, organism-based
Mus musculus [12] = assay: Increase in glucosylceramide level in GBA2 deficient C57BL/6-129S1 mouse testes at 150 mg/kg/day administered with chow; format: functional, organism-based; conditions: Testis
Mus musculus [13] = assay: Increase in complex glycosylated sphingolipids level in C57BL/6 mouse testes at 15 mg/kg/day administered with chow after 6 to 9 months; format: functional, organism-based; conditions: Testis
Mus musculus [14] = assay: Effect on spermatogenesis in C3H mouse assessed as morphological changes in spermatozoa at 150 mg/kg/day administered with chow; format: functional, organism-based
Mus musculus [15] = assay: Effect on testicular sphingomyelin level in C57BL/6 mouse at 150 mg/kg/day administered with chow; format: functional, organism-based
Mus musculus [16] = assay: Effect on spermatogenesis in C57BR mouse assessed as morphological changes in spermatozoa at 150 mg/kg/day administered with chow; format: functional, organism-based
Mus musculus [17] = assay: Reduction of complex glycosylated sphingolipids level in C57BL/6 mouse testes at 2400 mg/kg/day administered with chow; format: functional; set-up: scale not given: the % may be the effect or the level left
Mus musculus [18] = assay: Increase in long and saturated glucosylceramide level in C57BL/6 mouse testes at 150 mg/kg/day administered with chow; format: functional, organism-based; conditions: Testis
Mus musculus [19] = assay: Decrease in testicular very long chain polyunsaturated fatty acid sphingomyelin level in beta-glucosidase 2 deficient C57BL/6-129S1 mouse at 150 mg/kg/day administered with chow; format: functional, organism-based
Mus musculus [20] = assay: Effect on spermatogenesis in BALB/c mouse assessed as morphological changes in spermatozoa at 150 mg/kg/day administered with chow; format: functional, organism-based
Mus musculus [21] = assay: Increase in glucosylceramide level in C57BL/6 mouse testes administered with chow at 15 mg/kg/day after 3 to 12 months; format: functional, Testis
Mus musculus [22] = assay: Increase in very long and polyunsaturated glucosylceramide level in C57BL/6 mouse testes at 150 mg/kg/day administered with chow; format: functional, organism-based; conditions: Testis
Mus musculus [23] = assay: Effect on spermatogenesis in C57BL/6 mouse assessed as morphological changes in spermatozoa at 150 mg/kg/day administered with chow; format: functional, organism-based
Mus musculus [24] = assay: Increase in glucosylceramide level in C57BL/6 mouse liver administered with chow; format: functional, organism-based
Mus musculus [25] = assay: Increase in glucosylceramide level in GBA2 deficient C57BL/6-129S1 mouse somatic cells at 150 mg/kg/day administered with chow; format: functional, organism-based
Serum = assay: Drug level in C57BL/6 mouse serum at 15 mg/kg/day assessed as enzyme activity; format: ADME, organism-based; conditions: in vivo, read-out: Drug uptake
Mus musculus [26] = assay: Effect on spermatogenesis in MA/My mouse assessed as morphological changes in spermatozoa at 150 mg/kg/day administered with chow; format: functional, organism-based
Mus musculus [27] = assay: Increase in glucosylceramide level in C57BL/6 mouse testes administered with chow after 5 days; format: functional, organism-based; conditions: Testis
Mus musculus [28] = species: Mus musculus; assay: Effect on glucosylceramide level in C57BL/6 mouse testes; format: functional, organism-based; conditions: Testis
Mus musculus [29] = assay: Effect on spermatogenesis in C57BL/10 mouse assessed as morphological changes in spermatozoa at 15 mg/kg/day administered with chow; format: functional, organism-based
Mus musculus [30] = assay: Effect on spermatogenesis in AKR mouse assessed as morphological changes in spermatozoa at 150 mg/kg/day administered with chow; format: functional, organism-based
Mus musculus [31] = assay: Effect on spermatogenesis in DBA2 mouse assessed as morphological changes in spermatozoa at 150 mg/kg/day administered with chow; format: functional, organism-based
Mus musculus [32] = assay: Effect on spermatogenesis in C57BL/6-129S1 mouse assessed as morphological changes in spermatozoa at 150 mg/kg/day administered with chow; format: functional, organism-based
[33] = target: T1, Ceramide glucosyltransferase (Mus musculus, UniProt O88693); assay: Inhibition mouse glucosylceramide synthase
T1 sequence (O88693 whole entry): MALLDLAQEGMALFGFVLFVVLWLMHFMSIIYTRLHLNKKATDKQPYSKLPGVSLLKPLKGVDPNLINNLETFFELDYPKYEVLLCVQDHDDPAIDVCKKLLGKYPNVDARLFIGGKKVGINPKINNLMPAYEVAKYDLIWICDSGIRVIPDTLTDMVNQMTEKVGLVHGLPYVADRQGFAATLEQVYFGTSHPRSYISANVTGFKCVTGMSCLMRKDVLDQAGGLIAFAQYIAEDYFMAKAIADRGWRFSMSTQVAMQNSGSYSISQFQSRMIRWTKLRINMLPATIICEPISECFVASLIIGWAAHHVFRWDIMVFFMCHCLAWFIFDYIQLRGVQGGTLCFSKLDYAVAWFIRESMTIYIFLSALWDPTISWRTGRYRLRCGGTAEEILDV

Beta-glucosidase = target: T2, Beta-glucosidase (Homo sapiens, UniProt Q9HCG7); assay: Inhibition of bile acid beta-glucosidase activity of human liver GBA2
T2 sequence (Q9HCG7 whole entry): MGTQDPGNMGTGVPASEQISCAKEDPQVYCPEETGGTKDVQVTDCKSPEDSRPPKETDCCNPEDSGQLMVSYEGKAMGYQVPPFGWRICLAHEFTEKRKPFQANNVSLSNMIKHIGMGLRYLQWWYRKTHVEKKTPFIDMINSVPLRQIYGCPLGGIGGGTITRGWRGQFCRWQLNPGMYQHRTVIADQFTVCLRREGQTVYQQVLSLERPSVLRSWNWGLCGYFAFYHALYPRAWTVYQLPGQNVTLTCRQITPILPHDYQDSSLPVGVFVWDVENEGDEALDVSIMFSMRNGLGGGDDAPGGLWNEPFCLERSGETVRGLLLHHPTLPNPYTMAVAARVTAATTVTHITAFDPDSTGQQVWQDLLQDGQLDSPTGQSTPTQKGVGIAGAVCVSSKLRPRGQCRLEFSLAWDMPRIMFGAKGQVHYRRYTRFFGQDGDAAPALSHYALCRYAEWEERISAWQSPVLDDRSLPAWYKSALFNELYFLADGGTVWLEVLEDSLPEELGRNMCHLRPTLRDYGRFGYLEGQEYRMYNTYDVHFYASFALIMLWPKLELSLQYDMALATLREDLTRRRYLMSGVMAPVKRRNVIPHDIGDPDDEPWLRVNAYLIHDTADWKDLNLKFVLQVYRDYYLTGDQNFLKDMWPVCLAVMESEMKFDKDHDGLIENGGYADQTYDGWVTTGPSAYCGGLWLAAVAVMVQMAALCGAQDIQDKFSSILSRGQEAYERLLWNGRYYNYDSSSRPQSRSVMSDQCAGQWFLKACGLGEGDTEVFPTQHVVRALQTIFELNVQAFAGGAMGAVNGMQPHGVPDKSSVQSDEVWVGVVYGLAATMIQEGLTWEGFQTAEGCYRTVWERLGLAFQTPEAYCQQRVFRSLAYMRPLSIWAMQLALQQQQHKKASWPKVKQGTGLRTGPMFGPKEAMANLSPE

- concentration (Serum): 490 nM
Compound: CCCCN1C[C@H](O)[C@@H](O)[C@H](O)[C@H]1CO
- Activity (Mus musculus [1]): Active
- Activity (Mus musculus [2]): Active
- Activity (Mus musculus [3]): inactive
- Activity (Mus musculus [4]): inactive
- Activity (Mus musculus [5]): Active
- Activity (Mus musculus [6]): Active
- Activity (Mus musculus [7]): Active
- Activity (Mus musculus [8]): 15%
- Activity (Mus musculus [9]): Active
- Activity (Mus musculus [10]): inactive
- Activity (Mus musculus [11]): inactive
- Activity (Mus musculus [12]): Active
- Activity (Mus musculus [13]): Active
- Activity (Mus musculus [14]): inactive
- Activity (Mus musculus [15]): inactive
- Activity (Mus musculus [16]): Active
- Activity (Mus musculus [17]): 22%
- Activity (Mus musculus [18]): Active
- Activity (Mus musculus [19]): Active
- Activity (Mus musculus [20]): inactive
- Activity (Mus musculus [21]): 5
- Activity (Mus musculus [22]): Active
- Activity (Mus musculus [23]): Active
- Activity (Mus musculus [24]): inactive
- Activity (Mus musculus [25]): Active
- Activity (Mus musculus [26]): inactive
- Activity (Mus musculus [27]): Active
- Activity (Mus musculus [28]): Dose-dependent effect
- Activity (Mus musculus [29]): Active
- Activity (Mus musculus [30]): inactive
- Activity (Mus musculus [31]): inactive
- Activity (Mus musculus [32]): inactive

- IC50 [33]: 5300 nM
Compound: CCCCN1[C@H](CO)[C@H](O)[C@H](O)[C@@H](O)[C@@H]1O

- IC50 (Beta-glucosidase): 20 nM
Compound: CCCCCCCCCOC(=O)N1C[C@H](O)[C@@H](O)[C@H](O)[C@H]1CO

- IC50 (Beta-glucosidase): 2 nM
Compound: CCCCCCCCCCCCN1C[C@H](O)[C@@H](O)[C@H](O)[C@H]1CO
